Test results published in a melting point compilation (Tetko et al.; mined from patent text by program, amines drawn as free bases though some values may be those of a salt).

Compound | melting point
CC(=C1SC(=O)NC1=O)c1ccc(OCCOc2c(-c3ccc(F)c(F)c3)n(C)c3cc(Cl)ccc3c2=O)c(Cl)c1 | 140 to 142 °C
Nc1cccc(-c2cccc(CC3CCCC3NCCc3ccccc3)c2)n1 (stereo not given) | 110 to 130 °C
Nc1ccc(CS(=O)(=O)NCCc2ccccc2)cc1 | 123 to 125 °C
CO[C@]1(c2cccc(Sc3ccc4c(ccc(=O)n4C)c3)c2)CCO[C@@H](C)C1 | 93 to 96 °C
CC(C)(S)CNc1ccccc1N | 38 to 40 °C
N=C(N)c1ccc(Cl)cc1 | 266 to 268 °C
CCOCCc1ccc(OCCNc2ncnc3scc(C)c23)c(C)c1 | 55 to 57 °C
CCCNC(=O)C(=O)CCC(=O)O | 79 to 81 °C
CCCCCc1ncc(C(=O)O)s1 | 90 °C
N=C(NS(=O)(=O)C=Cc1ccc([N+](=O)[O-])cc1)c1ccccc1 | 173 to 175 °C
O=C(O)C1(S(=O)(=O)c2ccc(OCC#CCN3CCOCC3)cc2)CCN(Cc2ccc(Br)cc2)CC1 | 198 °C
CN1CCCCC1COC(=O)c1c[nH]c2ccccc12 (stereo not given) | 168 to 170 °C
CCCCC(=NO)C(C)(C)NOC(CNC(C)(C)C(CC)=NO)Cn1ccnc1[N+](=O)[O-] (stereo not given) | 153 to 154 °C
CCc1c(CCNC(=O)C(F)(F)F)ccc(OC)c1OC | 80 to 81 °C
CC(C)c1cccc(-c2ccc(F)cc2)c1O | 41 to 43 °C
COc1ccc(CC#N)c(C)c1OC | 60 to 63 °C
CCOC(=O)[C@H](Cc1ccc(-c2c(C)n(C)c(=O)n(C)c2=O)cc1)NC(=O)c1c(F)cccc1F | 218 to 219 °C
Nc1nc(COCCO)nc2nccnc12 | 149 to 151 °C
CC(=O)Nc1ccc(C#Cc2ccc(N3CC4CCC(C3)N4C)nn2)cc1 | 292 °C
CCNC(=O)c1cc(N)c(N)cc1OC | 65 to 67 °C
CCN1C(=O)CCCc2cc(Nc3ncc(Cl)c(Nc4ccc(N5CCOCC5)cc4OC)n3)c(OC)cc21 | 212 to 214 °C
CCC(Cc1c(I)cc(I)c(NC(=O)CCl)c1I)C(=O)O (stereo not given) | 157 °C
CC(C(=O)O)c1cc(Cl)c(N)cc1Cl (stereo not given) | 140 to 141 °C
CCOC(=O)c1cn(-c2ncns2)c2nc(Cl)c(F)cc2c1=O | 203 to 206 °C
O=C1c2ccc(C(F)(F)F)cc2C(=O)N1c1ccc2ccc(Cl)nc2n1 | 265 °C

Compound | melting point
O=c1[nH]nc(-c2ccc(N=Cc3ccc(O)cc3)cc2)c(O)c1O | 233 °C
Cc1ccc2c(C3CCN(CCN4CCN(C(C)C)C4=O)CC3)cn(-c3ccc(F)cc3)c2c1 | 124 °C
CCN(CC)c1ccc(C2(N(c3ccc(N(C)C)cc3)c3ccc(N(C)C)cc3)OC(=O)c3ccccc32)c(C)c1 (stereo not given) | 67 to 83 °C
COc1ccc2cccc(C(CCO)CNC(=O)C3CC3)c2c1 (stereo not given) | 158 to 160 °C
Cc1ccc(-n2c3ccccc3c3ccccc32)cc1 | 104 to 106 °C
CCOC(=O)c1cccc2c(-c3ccc(C)cc3)nccc12 | 112 °C
COc1ccc(CSc2nnc(-c3ccc4occc4c3)o2)cc1 | 124 to 125 °C
COc1cc(-c2ncn(-c3ccc(C(F)(F)F)cc3)c2-c2ccc(N(C)C)cc2)cc(OC)c1OC | 215 to 217 °C
N#Cc1cccc(COc2ncc(F)c(NC(=O)NCc3ccccc3F)n2)c1 | 177 to 178 °C
CCCCC1(CCCC)CS(=O)(=O)c2ccc(N(C)C)cc2[C@@H](c2ccc(OCCCCCN(CC(=O)O)CC(=O)O)cc2)[C@H]1O | 148 to 162 °C
CC(C)(C)c1cc(-c2nnc(NC#N)s2)cc(C(C)(C)C)c1O | > 250 °C
N#Cc1cc(C(F)(F)F)ccc1Oc1ccc([N+](=O)[O-])c(C(=O)O)c1 | 190 to 192 °C
CCCCOc1ccccc1-c1nc(Cl)cc(OCCC(C)C)n1 | 47 to 50 °C
Cc1c(C)c2c(c(C)c1NC(=O)NCCCO)C(c1ccc(C(C)C)cc1)CO2 (stereo not given) | 185 to 186 °C
CCCc1c(OC(=S)N(C)C)ccc2c(=O)cc(C(=O)OCC)oc12 | 132 to 134 °C
CC(C)CC1(C(CCN2C(=O)c3ccccc3C2=O)C(=O)NO)CCN(Cc2ccccc2)C1=O (stereo not given) | 162 to 164 °C
COCCn1nc2c(N)nc3ccccc3c2c1CC(C)(C)C#N | 206 to 208 °C
CCCCc1ccc(-c2ccc(OCC(C)CC)nn2)cc1 (stereo not given) | 94 °C
CC(C)(C)c1cc(C#N)c(O)c(Br)c1Cl | 105 to 107 °C
COc1cc(C(=O)O)ccc1Cn1ccc2ccc(NC(=O)OC3CCCC3)cc21 | 237 to 238 °C
CN(C)C=CC(=O)c1ccc(-c2ccc(N(c3ccccc3)c3ccccc3)cc2)cc1 | 166 to 167 °C
CCC(CC)NC(=O)C(C)(C)COc1cccc2nc(C)c(C(=O)O)c(N)c12 | 172 to 174 °C
NS(=O)(=O)c1cc(C(=O)O)cc(S(=O)(=O)Cc2ccccc2)c1Cl | 236 to 237 °C
C=CCOc1ccc(C#N)c(Cl)c1 | 50 to 52 °C
Cc1sc(-c2ccc([N+](=O)[O-])cc2)nc1O | 244 to 248 °C
